# Reference: patent US20260285850A1, “SUBSTITUTED OXAZOLIDINONES AND IMIDAZOLINONES AS HERBICIDES” (FMC CORPORATION, priority 2023, published 2026)
# Key:
# Format in all cases: in vivo
# [1] = test system: ryegrass, Italian (italian ryegrass, Lolium multiflorum); assay: Test A postemergence application, visual injury rating 0-100
# Summary of the method: (§1)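 Directed preemergence spray onto seeded soil or postemergence spray onto 2-10 cm plants (loam plus sand); compound carried in surfactant-containing non-phytotoxic solvent. Injury rated by eye after 10 d greenhouse growth; 0 = no effect, 100 = complete control.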
# [2] = test system: ragweed (common ragweed, Ambrosia artemisiifolia); assay: as above
# Summary of the method: as §1
# [3] = test system: palmer (palmer amaranth, palmer pigweed, Amaranthus palmeri); assay: as above
# Summary of the method: as §1
# [4] = test system: oat, wild (wild oat, Avena fatua); assay: as above
# Summary of the method: as §1
# [5] = test system: blackgrass (Alopecurus myosuroides); assay: as above
# Summary of the method: as §1
# [6] = test system: green foxtail (Setaria viridis); assay: as above
# Summary of the method: as §1
# [7] = test system: galium (catchweed bedstraw, Galium aparine); assay: as above
# Summary of the method: as §1
# corn (Zea mays) [8] = assay: as above
# Summary of the method: as §1
# soybean (Glycine max) [9] = assay: as above
# Summary of the method: as §1
# [10] = test system: barnyardgrass (Echinochloa crus-galli); assay: as above
# Summary of the method: as §1
# [11] = test system: wheat (Triticum aestivum); assay: as above
# Summary of the method: as §1
# [12] = test system: horseweed (Erigeron canadensis); assay: as above
# Summary of the method: as §1
# kochia (Bassia scoparia) [13] = assay: as above
# Summary of the method: as §1
# [14] = test system: barnyardgrass (Echinochloa crusgalli); assay: Test B flooded paddy test, visual plant response rating 0-100; details: 250 g ai/ha, Flood, applied to paddy water, evaluated after 13 days
# Summary of the method: (§2)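 Plants were grown to the 2-leaf stage, then pots were flooded to 3 cm above the soil and test compounds were applied directly into the paddy water. Water depth was held there throughout; after 13 days in a greenhouse, injury was scored visually against untreated controls.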
# [15] = test system: sedge, umbrella (small-flower umbrella sedge, Cyperus difformis); assay: as above; details: 250 g ai/ha, Flood, applied to paddy water, evaluated after 13 days
# Summary of the method: as §2
# [16] = test system: ducksalad (Heteranthera limosa); assay: as above; details: 250 g ai/ha, Flood, applied to paddy water, evaluated after 13 days
# Summary of the method: as §2
# rice (Oryza sativa) = assay: as above; details: 250 g ai/ha, Flood, applied to paddy water, evaluated after 13 days
# Summary of the method: as §2
# [17] = test system: ryegrass, Italian (italian ryegrass, Lolium multiflorum); assay: Test A preemergence soil spray, visual injury rating 0-100; details: 10 days
# Summary of the method: as §1
# [18] = test system: ragweed (common ragweed, Ambrosia artemisiifolia); assay: as above; details: 10 days
# Summary of the method: as §1
# [19] = test system: palmer (palmer amaranth, palmer pigweed, Amaranthus palmeri); assay: as above; details: 10 days
# Summary of the method: as §1
# [20] = test system: oat, wild (wild oat, Avena fatua); assay: as above; details: 10 days
# Summary of the method: as §1
# [21] = test system: blackgrass (Alopecurus myosuroides); assay: as above; details: 10 days
# Summary of the method: as §1
# [22] = test system: green foxtail (Setaria viridis); assay: as above; details: 10 days
# Summary of the method: as §1
# corn (Zea mays) [23] = assay: as above; details: 10 days
# Summary of the method: as §1
# soybean (Glycine max) [24] = assay: as above; details: 10 days
# Summary of the method: as §1
# [25] = test system: barnyardgrass (Echinochloa crus-galli); assay: as above; details: 10 days
# Summary of the method: as §1
# [26] = test system: wheat (Triticum aestivum); assay: as above; details: 10 days
# Summary of the method: as §1
# kochia (Bassia scoparia) [27] = assay: as above; details: 10 days
# Summary of the method: as §1
# [28] = 62 g ai/ha, postemergence, 10 days, 0 = no effect, 100 = complete control
# [29] = Postemergence, 16 g ai/ha, greenhouse 10 days, 0 no effect, 100 complete control
# [30] = 62 g ai/ha, 0 = no effect, 100 = complete control
smiles,measurement,setting,value
CSCCOC(=O)C1CC(NC(=O)C2(C)CN(c3cc(F)cc(F)c3)C(=O)O2)C1 (racemic) [Compound 120],"Ryegrass, Italian plant response rating (0-100)",[1]; [28],70
same,"Ryegrass, Italian plant response rating (0 to 100 scale)",[1]; [29],10
same,Ragweed plant response rating (0-100),[2]; [28],40
same,Ragweed plant response rating (0 to 100 scale),[2]; [29],20
same,"Pigweed, Palmer plant response rating (0-100)",[3]; [28],70
same,"Pigweed, Palmer plant response rating (0 to 100 scale)",[3]; [29],10
same,"Oat, Wild plant response rating (0-100)",[4]; [28],80
same,"Oat, Wild plant response rating (0 to 100 scale)",[4]; [29],30
same,Blackgrass plant response rating (0-100),[5]; [28],90
same,Blackgrass plant response rating (0 to 100 scale),[5]; [29],70
same,"Foxtail, Green plant response rating (0-100)",[6]; [28],90
same,"Foxtail, Green plant response rating (0 to 100 scale)",[6]; [29],60
same,Galium plant response rating (0-100),[7]; [28],70
same,Galium plant response rating (0 to 100 scale),[7]; [29],20
same,Corn plant response rating (0-100),corn (Zea mays) [8]; [28],100
same,Corn plant response rating (0 to 100 scale),corn (Zea mays) [8]; [29],90
same,Soybean plant response rating (0-100),soybean (Glycine max) [9]; [28],80
same,Soybean plant response rating (0 to 100 scale),soybean (Glycine max) [9]; [29],50
same,Barnyardgrass plant response rating (0-100),[10]; [28],100
same,Barnyardgrass plant response rating (0 to 100 scale),[10]; [29],50
same,Wheat plant response rating (0-100),[11]; [28],90
same,Wheat plant response rating (0 to 100 scale),[11]; [29],90
same,Horseweed plant response rating (0-100),[12]; [28],10
same,Horseweed plant response rating (0 to 100 scale),[12]; [29],10
same,Kochia plant response rating (0-100),kochia (Bassia scoparia) [13]; [28],80
same,Kochia plant response rating (0 to 100 scale),kochia (Bassia scoparia) [13]; [29],0
same,"Plant response rating, Barnyardgrass (0 to 100 scale, 0 is no effect and 100 is complete control)",[14],0
same,"Plant response rating, Sedge, Umbrella (0 to 100 scale, 0 is no effect and 100 is complete control)",[15],0
same,"Plant response rating, Ducksalad (0 to 100 scale, 0 is no effect and 100 is complete control)",[16],0
same,"Plant response rating, Rice (0 to 100 scale, 0 is no effect and 100 is complete control)",rice (Oryza sativa),0
same,"Ryegrass, Italian plant response rating","[17]; 16 g ai/ha, 0 to 100 scale",10
same,"Ryegrass, Italian plant response rating (0-100)",[17]; [30],80
same,Ragweed plant response rating,"[18]; 16 g ai/ha, 0 to 100 scale",10
same,Ragweed plant response rating (0-100),[18]; [30],0
same,"Pigweed, Palmer plant response rating","[19]; 16 g ai/ha, 0 to 100 scale",0
same,"Pigweed, Palmer plant response rating (0-100)",[19]; [30],20
same,"Oat, Wild plant response rating","[20]; 16 g ai/ha, 0 to 100 scale",90
same,"Oat, Wild plant response rating (0-100)",[20]; [30],90
same,Blackgrass plant response rating,"[21]; 16 g ai/ha, 0 to 100 scale",40
same,Blackgrass plant response rating (0-100),[21]; [30],80
same,"Foxtail, Green plant response rating","[22]; 16 g ai/ha, 0 to 100 scale",20
same,"Foxtail, Green plant response rating (0-100)",[22]; [30],20
same,Corn plant response rating,"corn (Zea mays) [23]; 16 g ai/ha, 0 to 100 scale",0
same,Corn plant response rating (0-100),corn (Zea mays) [23]; [30],80
same,Soybean plant response rating,"soybean (Glycine max) [24]; 16 g ai/ha, 0 to 100 scale",0
same,Soybean plant response rating (0-100),soybean (Glycine max) [24]; [30],0
same,Barnyardgrass plant response rating,"[25]; 16 g ai/ha, 0 to 100 scale",0
same,Barnyardgrass plant response rating (0-100),[25]; [30],60
same,Wheat plant response rating,"[26]; 16 g ai/ha, 0 to 100 scale",20
same,Wheat plant response rating (0-100),[26]; [30],70
same,Kochia plant response rating,"kochia (Bassia scoparia) [27]; 16 g ai/ha, 0 to 100 scale",0
same,Kochia plant response rating (0-100),kochia (Bassia scoparia) [27]; [30],30
